# Data: patent US12594262B2, “CAI nanoemulsions” (ForwardVue Pharma, Inc., priority 2019, dated 2026)
# Columns and labels:
# [1] = cited from earlier work
# [2] = cited from earlier work; remark: listed apart in the source
# [3] = Stability of CAI to autoclave sterilization, RP-HPLC analysis with UV detection; assay type: physicochemical; settings: autoclaving, for instance 121° C. for about 30 minutes
# Description: Stable sterile formulations can then be prepared by autoclaving for sufficient time at temperatures suitable for effectively killing the microorganisms that may be present in the formulation, for instance, 121° C. for about 30 minutes.
# [4] = cited from earlier work; remark: listed apart in the source
# [5] = humans, single 5 mg peribulbar injection; cited from earlier work
compound,measurement,setting,value
NC(=O)c1nnn(Cc2cc(Cl)c(C(=O)c3ccc(Cl)cc3)c(Cl)c2)c1N [CAI],plasma concentrations associated with unacceptable toxicity,[1],above 100 micromolar
same,physiological tissue concentrations,[2],1-10 μM
same,decomposition of CAI or formation of new impurities after sterilization,[3],no decomposition of CAI or formation of new impurities could be detected
same,toxic effects observed in clinical studies,[4]; doses required to achieve circulating levels projected for inhibition of pathological neovascularization,"cerebellar ataxia, peripheral neuropathy and exacerbation of depression"
same,serious side effect of clinical use,"[4]; systemic administration, two cases described (Berlin et al. 2002)",loss of vision
C[C@@H]1C[C@H]2[C@@H]3CCC4=CC(=O)C=C[C@]4(C)[C@@]3(F)[C@@H](O)C[C@]2(C)[C@@]1(O)C(=O)CO [Dexamethasone],concentration detected in the vitreous cavity,[5],13 ng/mL
